These results are taken from PMC9186491, “Novel Small Molecule Tyrosine Kinase 2 Pseudokinase Ligands Block Cytokine-Induced TYK2-Mediated Signaling Pathways” (Frontiers in Immunology, 2022).

For experiment [1], the system named is IFNα-induced CXCL10 production in human whole blood. The experiment in a line: IFNα-induced CXCL10 production in human whole blood. The format is cell-based. The protocol: Human whole blood [drawn with Ethylenediaminetetraacetic acid (EDTA) as anti-coagulant] was obtained from Zen-Bio Inc. (Durham, NC). […] The plasma was collected for detection of C-X-C motif chemokine 10 (CXCL10, IP10) secretion. CXCL10 was measured by Human CXCL10/IP-10 AlphaLISA Kit (PerkinElmer, #AL259 C/F) according to the manufacturer’s instructions.

Experiment [2] has as its system IL12-induced-IFNg production in Rat PBMCs. As to the kind of experiment: IL12-induced IFNγ production in rat PBMCs. The format is cell-based. Particulars: PBMC. As to the method:
(§1) generated by non-linear regression analysis to determine the IC50 values of compounds using […]
(§2) (Monkey, Canine, Rat and Mouse) […]
(§3) JH2 ligands, SHR2915, 0936, 1039 and 1213, in mouse splenocytes (B), Canine PBMCs (C), Rat PBMCs (D) and Macaque PBMCs (E). Inhibition data were calculated by comparison to vehicle […]
(§4) response curves were then generated to determine the IC50 values as derived by non-linear regression analysis using GraphPad Prism. […]

Experiment [3] relates to IL12-induced-IFNg production in Canine PBMCs. The experiment in a line: IL12-induced IFNγ production in canine PBMCs. Particulars: Canis lupus familiaris, PBMC. Type of experiment: cell-based. As to the method:
as §1, §2, §3, §4

The test system of experiment [4] is JAK1/3-dependent IL2-induced phosphorylation of STAT5 (Tyr694/699) in Kit225 cells. The experiment in a line: JAK cellular selectivity assay, IL2-pSTAT5 (JAK1/3). The format is cell-based. Particulars: Homo sapiens, KIT225, read-out: JAK Cellular Selectivity (IC50) IL2-pSTAT5 (JAK1/3). As to the method: (§5) The cells were then ready for the assay after incubating for 2 hours in a humidified, 5% CO2 cell culture incubator at 37°C. […] The curve fit was generated, and statistical analysis was performed using GraphPad Prism. IC50 values were derived by non-linear regression analysis and defined as the compound concentration at which the response level was reduced to half of its maximum relative to a DMSO control.

The test system of experiment [5] is IL23-induced-IL17 production in mouse splenocytes. As to the kind of experiment: IL23-induced IL17 production in mouse splenocytes. Type of experiment: cell-based. Conditions: Splenocyte; IL23-stimulated mouse splenocytes; read-out: mIL17 IC50. The protocol:
as §1
(Monkey, Canine, Rat and Mouse)
(A) Suppression of IL23-induced-IL17 production in mouse splenocytes by TYK2 JH2 ligands, […]
as §3, §4

Experiment [6] has as its system JAK1-dependent IL6-induced phosphorylation of STAT3 (Tyr705) in TF1 cells. As to the kind of experiment: JAK cellular selectivity assay, IL6-pSTAT3 (JAK1). The format is cell-based. Conditions: Homo sapiens, TF-1, read-out: JAK Cellular Selectivity (IC50) IL6-pSTAT3 (JAK1). As to the method: as §5
Experiment [7] concerns IL12-induced IFNγ production in human PBMCs. As to the kind of experiment: IL12-induced IFNγ production in human PBMCs. Conditions: PBMC, IL12 overnight, read-out: TYK2-associated IL12-induced-IFNγ Production in Human PBMCs: IC50. The format is cell-based. As to the method:
Human PBMC samples were obtained from iQ Biosciences, CA. 1.0 × 10^6/mL PBMCs were seeded in complete RPMI at a sterilized U-shaped 96-well plate with a volume of 200 μL/well. PBMCs were treated by serially-diluted test compounds, and incubated with 40 ng/mL recombinant human IL12 (Biolegend, #573002) for overnight in a humidified, 5% CO2 cell culture incubator at 37°C. The supernatant was then collected for detection of IFNγ secretion. IFNγ level was measured by Human IFNγ AlphaLISA Kit (PerkinElmer, AL217C/F) according to the manufacturer’s instructions.

Experiment [8] concerns IL12-induced-IFNg production in Macaque PBMCs. As to the kind of experiment: IL12-induced IFNγ production in macaque PBMCs. The format is cell-based, Macaque (Cyno Monkey). Particulars: Primates, PBMC, read-out: IL12-induced-IFNg, IC50, Monkey. The protocol: as §1, §2, §3, §4
Experiment [9] deals with IL12-induced-IFNg production in mouse splenocytes. The experiment in a line: IL12-induced IFNγ production in mouse splenocytes. Particulars: Splenocyte. The format is cell-based.
Experiment [10] deals with JAK2-dependent EPO-induced phosphorylation of STAT5 (Tyr694/699) in TF1 cells. As to the kind of experiment: JAK cellular selectivity assay, EPO-pSTAT5 (JAK2). Type of experiment: cell-based, human. As to the method:
as §5

For experiment [11], the system named is IL23-induced TYK2/phosphoSTAT3 (Tyr705) in Kit225 T cells. The experiment in a line: Kit225 T cell assay for IL23-induced TYK2/phosphoSTAT3 activity. Type of experiment: cell-based, human. Particulars: Kit225 cells, 100 ng/mL IL23, AlphaLISA; read-out: IC50 IL23-induced-STAT3 Phosphorylation. As to the method:
The cells were treated with serially diluted compounds for 1 hour and stimulated with 100 ng/mL human recombinant IL23 (R&D Systems) for 20 minutes. The treated cells were then lysed and cellular phosphorylated-STAT3 (Tyr705) levels were measured by AlphaLISA (PerkinElmer, Cat# ALSU-PST3) according to the manufacturer’s instructions.
In general terms: In Alpha technology, singlet oxygen from a donor bead excites a nearby acceptor bead.

In experiment [12] the test system is IFNα-induced TYK2/phosphoSTAT1 (Tyr701) in Kit225 T cells. The experiment in a line: Kit225 T cell assay for IFNα-induced TYK2/phosphoSTAT1 activity. Particulars: Kit225 cells, 80 ng/mL IFNα, AlphaLISA; read-out: IC50 IFNα-induced-STAT1 Phosphorylation. Type of experiment: cell-based, human. The protocol:
The cells were treated with serially diluted compounds for 1 hour and stimulated with 80 ng/mL human recombinant IFNα (R&D Systems) for 15 minutes. The treated cells were then lysed and cellular phosphorylated-STAT1 (Tyr701) levels were measured by AlphaLISA (PerkinElmer, Cat#ALSU-PST1) according to the manufacturer’s instructions.

Experiment [13] deals with moderate to severe psoriasis patients. Further details: method as in PMID 30205746. Particulars: phase II, 267 patients; cited from earlier work.

Like-named read-outs stand apart in the source and are kept apart here.

As to `CNC(=O)c1nnc(Nc2ccc(N3CCC3)cn2)cc1Nc1cccc(-c2ncn(C)n2)c1OC` [SHR2915], the IC50 in [1] (Homo sapiens, 16 h, read-out: TYK2-associated IFNα-induced-CXCL10 Production in Human Whole Blood: IC50) was found to be 160 nM; in [2] it was 3 nM; in [3] it was 33 nM; in experiment [4], 2300 ± 970 nM; in [5], 11 nM; in experiment [6] it was 200 ± 11 nM. Also, the IC50 in experiment [7] was 45 nM; in experiment [8] it was 14 nM; in experiment [9], 60 nM; in experiment [10] (Homo sapiens, TF-1, read-out: JAK Cellular Selectivity (IC50) EPO-pSTAT5 (JAK2)), more than 10000 nM.
For the compound Deucravacitinib, the IC50 in experiment [1] (Donor 1, read-out: IFNa-induced-CXCL10 Production in Human Whole Blood IC50, Donor 1) was 110 nM; in experiment [1] (Donor 2, read-out: IFNa-induced-CXCL10 Production in Human Whole Blood IC50, Donor 2), 94 nM; in experiment [1] (Donor 3, read-out: IFNa-induced-CXCL10 Production in Human Whole Blood IC50, Donor 3), 83 nM; in [1] (average of Donor 1-3, read-out: IFNa-induced-CXCL10 Production in Human Whole Blood IC50, Average), 96 nM; in [11], 5 nM; in experiment [12] it was 8.5 nM. The IC50 in [10] (TF1 cells, read-out: JAK Cellular Selectivity (IC50) EPO-pSTAT5 (JAK2)) was more than 10000 nM. For the same compound, in experiment [13], the “Daily dose at which clinically effective” value was not below 3 mg.
